How the values were obtained:
HeLa cells [1] = assay: Delivery of peptides inside live cells, internalization assessed by fluorescence microscopy; type: cell-based; details: 1 h incubation
Experimental: The TAT, dTAT and acTAT peptides were incubated for 1 h with several cell lines and internalization was assessed by fluorescence microscopy. […] See also FIG. 5. […] The cell lines HeLa, NIH 3T3, COLO 316 and HaCaT were incubated with 5 μM dTAT for 1 h, washed and imaged. […] After imaging, cells were incubated at 37° C. in a humidified atmosphere containing 5% CO2 for 24 h, washed and imaged again. […] Cell viability was assessed by exclusion of the cell-impermeable nuclear stain SYTOX® Blue at both 1 h and 24 h time point. […] Inverted monochrome (black=fluorescence signal, white-no signal) fluorescence images were made of HeLa cells incubated with 10 or 20 μM of TAT for 1 h.
Live cells from different lines (HeLa, HaCat, NIH 3T3) were grown in Dulbecco's […] (DMEM) (Fisher) supplemented with 10% fetal bovine serum (FBS) (Fisher) and kept at 37° C. in a humidified atmosphere containing 5% CO2. Cells were then seeded in 8-well dishes so that the cells were 80%-90% confluent after 48 h. […] The media (nrL-15) used for incubation lacks cysteine to avoid reduction of the disulfide bond of dTAT. Cells were then incubated with different concentrations of the acTAT, TAT, or dTAT at 37° C. for 1 h. […] Images were collected using a Rolera-MGI Plus back-illuminated EMCCD camera (Qimaging, Surrey, BC, Canada). Images were acquired using bright field imaging and three standard fluorescence filter sets: CFP (Ex=436±10 nm/Em=480±20 nm), RFP (Ex=560±20 nm/Em=630±35 nm), and FITC (Ex=488±10 nm/Em=520±20 nm). The fluorescence intensities of different cells were measured with the SlideBook 4.2 software (Olympus, Center Valley, Pa.) and the average fluorescence intensity was determined for each condition. It has been previously reported that CPPs labeled with fluorophores such as TMR can photosensitize membranes and cause endosomal leakage upon light irradiation. See, Srinivasan, D. et al., “Conjugation to the cell-penetrating peptide TAT potentiates the photodynamic effect of carboxytetramethylrhodamine,” PloS one 6:e17732 (2011) and Muthukrishnan, N., et al., “Synergy Between Cell-Penetrating Peptides and Singlet Oxygen Generators Leads to Efficient Photolysis of Membranes,” Photochemistry and Photobiology 89:625-630 (2012), each incorporated herein by reference in its entirety. […] First, all delivery experiments were performed under conditions of minimal light irradiation (dark room with dim red light). When fluorescence imaging is required, probes (e.g., SNAP surface 488, EGFP) are imaged before dTAT is, thereby minimizing the possible effect of light on endosomal release. For experiments performed with Cre and Hoxb4, cells are not imaged and not exposed to light (not at all for Hoxb4, 12 h after incubation for Cre).

[2] = system: HeLa transfected with the pCALNL-GFP plasmid; type: cell-based
Experimental: The number of cells in the images was approximately the same as assessed by bright field microscopy (1,000 cells/experiment, experiments in triplicate, average and standard deviations represented). Scale bars, 100 μM.
To further confirm that functional proteins can penetrate cells upon incubation with dTAT, delivery of Cre recombinase was tested. In this assay, Cre induces recombination of a loxP-STOP-loxP sequence upstream of the egfp gene of a reporter plasmid.

NIH 3T3 cells = assay: HoxB4 and TAT-HoxB4 delivery, luciferase reporter under a HoxB4-inducible promoter; type: cell-based, murine
Experimental: Next, the delivery of the therapeutically important transcription factor HoxB4 was tested. HoxB4 can penetrate cells by itself or when fused to the […] TAT and activate transcription. […] NIH 3T3 cells were transfected with a vector containing the luciferase gene under a HoxB4-inducible promoter and with a β-galactosidase reporter as internal control. Cells were incubated with HoxB4 or TAT-HoxB4, in the absence or presence of dTAT for 1.5 h. Cells were then lysed and luciferase expression was assessed by measuring the luminescence of cell lysates normalized to β-galactosidase activity. […] These values are consistent with previously published reports. In contrast, addition of dTAT (3 μM), led to a luciferase induction of 53.1 and 307.4, respectively. The luciferase induction was therefore increased 24-fold in the presence of dTAT for HoxB4 and 61-fold for TAT-HoxB4. […] While increasing the transcriptional output of HoxB4 is valuable, high levels of HoxB4 expression can result in anti-proliferative and transforming effects. Precisely controlling the level and activity of HoxB4 inside cells is therefore important to achieve a desirable biological outcome. Because dTAT appears to act independently of the molecules used for co-incubation in our assays, it was hypothesized that it might be possible to titrate the amount of protein that penetrates cells by varying the protein concentration in the media while keeping dTAT concentration constant. Under this scenario, the efficiency of endosomal escape should remain unaffected but the amount of material released from endosomes should change.
The murine fibroblast cell line (NIH-3T3, stably transfected with the E2A-PBX vector), the luciferase reporter vector, pML (5×HOX/PBX; contains a promoter with binding sites for HOXB4 and PBX) and the β-gal internal control vector used in the following studies were kindly provided by P. Zandstra (University of Toronto, Ontario, Canada). The cells were initially cultured in 100 mm dishes at 37° C. with 5% CO2 in DMEM supplemented with 10% FBS. For experimental purposes, however, cells were seeded in 24-well plates at a density of 5-6×10^4 cells/well for 24 hours. Subsequently, cells were co-transfected with 0.8 μg/mL of pML (5×HOX/PBX) and of the β-gal internal control vector using Lipofectamine 2000. Twelve hours post-transfection, cells were washed and incubated with TAT-HoxB4 or HoxB4 (both at 200 nM, unless otherwise noted; see below) with or without TAT or dTAT in nrL-15 for 90 min. Some cells were also incubated with TAT-mCherry (200 nM) with and without the peptides. After incubation, all cells were washed with PBS and lysed according to the manufacturer's protocol for the reporter lysis buffer (RLB) (Promega). For titration experiments, the same protocol was followed, with the exception that HoxB4 concentrations were varied (25, 50, 100, 150 and 200 nM). In order to quantitate the luciferase reporter activity, 100 μL of luciferase assay reagent (Promega) was added to 20 μL of cell lysate and bioluminescence was immediately measured using a SpectraMaxL luminometer (Sunnyvale, Calif.). […] Absorbance was then measured at 450 nm using the plate reader. Since the absorption spectrum of the chromophore (TMR) conjugated to the peptide used in this study overlaps with that of β-gal, 20 μL of cell lysate containing the peptide was also diluted with 180 μL of the lysis buffer and absorbance values obtained at 450 nm were subtracted from that of the β-gal absorbance values. […]

HeLa cells [3] = assay: Effect of endocytic inhibitors on cytosolic delivery of dTAT; type: cell-based; details: 50 μM amiloride or 200 nM bafilomycin pre-treatment, then 5 μM dTAT and inhibitor
Experimental: (§1) FIGS. 8A-8C illustrate that dTAT mediates endosomal escape. (FIG. 8A) Effect of endocytic inhibitors on the cellular distribution of dTAT. HeLa cells were pre-treated with 50 μM amiloride or 200 nM bafilomycin for 30 and 20 min respectively, washed, and incubated with 5 μM dTAT and inhibitor. […] Scale bar, 10 μm. […] A schematic illustration of the experimental steps is shown (top). First, cells were incubated with 5 μM DEAC-K9 for 1 h and washed. Inverted monochrome images show a fluorescence punctuate distribution after incubation with DEAC-K9 alone. The same cells were then incubated with 5 μM dTAT for 1 h. Images show a redistribution of DEAC-K9 to the cytosol and nucleus (inhibited by bafilomycin). Scale bars, 10 μm. (FIG. 8C) The endosomolytic activity of dTAT is highly efficient. HeLa cells expressing SNAPH2B were incubated with 5 μM dTAT and 5 μM SNAP-Surface® 488. Fluorescence images show accumulation of SNAP-Surface® 488 in the nucleus. […] Small panels show cytosolic and nuclear fluorescence of TMR. Scale bars, 10 μm.
(§2) To test whether endosomal escape is involved in delivery of dTAT, the effects of amiloride, a macropinocytosis inhibitor, and bafilomycin, an inhibitor of endosomal acidification, were assessed. […] Cells were then washed and incubated with dTAT (FIG. 8B). […] This redistribution was however inhibited by bafilomycin.

HeLa cells [4] = assay: dTAT-induced cytosolic release of DEAC-K9 trapped inside endosomes; type: cell-based
Experimental: as §1, §2

HeLa cells [5] = assay: Quantitative determination of peptide uptake inside cells (bulk fluorescence of cell lysates); type: cell-based; details: acTAT 5-25 μM (FIG. 23)
Experimental: HeLa cells were seeded in a 48 well dish, grown and washed as described above. For the peptide uptake experiment, each well was incubated for 1 h with varying concentration of acTAT, TAT or dTAT (range: 5-25 μM peptide concentration). For the titration experiment, cells were incubated with dTAT (5 μM) and varying concentrations of DEAC-K9 (range: 1-20 μM). Cells were then washed with PBS and nrL-15 and imaged. Multiple images for each condition were obtained and processed. To lyse cells, nrL-15 was removed from the wells and a total of 100 μL of HeLa cell lysis Buffer (50 mM Tris pH 7.5, 2 mM EDTA, 2 mM DTT, 0.1% Triton X-100) was incubated with cells for 5 min. The cells were lysed and scraped off the dish and pipetted into a 1.5 mL microcentrifuge tube. The cell lysates were centrifuged at 13.2K RPM for 25 min. […] The fluorescence from the cell lysates were measured using a plate reader equipped with a fluorescence module (Ex==525, Em=580-640 nm) (GloMax®-Multi+ Detection System, Promega, Fitchburg, Wis.). For the titration experiment, 80 μL of supernatant was diluted to a total volume of 100 μL and the bulk fluorescence was measured using a SLM-8000C fluorometer (Ex=435 nm, Em=465-475 nm) (SLM Instruments, Bath, UK). The fluorescence emission was averaged and recorded. […] The absorbance at 600 nm was measured using the plate reader. […]

**Q.** What does the source list for “CK(ε-NH-TMR)TAT ({Cys-K(TMR)}-RKKRRQRRRG-NH2) [monomer product: cysteine, TMR-modified lysine, TAT CPP domain … with C-terminal glycine amide]”?
**A.** cellular localization of peptide fluorescence (HeLa cells [1]; 20 μM): many cells display cytosolic fluorescence; cellular localization of peptide fluorescence (HeLa cells [1]; up to 10 μM): localized inside endosomes; percentage of EGFP+ cells [2]: 4.8%

**Q.** What does the source list for “HoxB4: transcription factor with therapeutic potential for in vitro expansion of hematopoietic stem cells”?
**A.** luciferase induction versus HoxB4 concentration (NIH 3T3 cells; HoxB4 25-200 nM, dTAT 3 μM): responded linearly with the concentration of HoxB4 in the media; increase in luciferase activity over cells not treated with protein (NIH 3T3 cells; protein 200 nM alone, 1.5 h): 2.2 fold; luciferase induction (NIH 3T3 cells; protein 200 nM with dTAT 3 μM, 1.5 h): 53.1 fold; increase of luciferase induction in the presence of dTAT over protein alone (NIH 3T3 cells; protein 200 nM, dTAT 3 μM): 24 fold

**Q.** What does the source list for `CO/C1=C\C(C)=C\[C@@H](C)[C@@H](O)[C@@H](C)C/C(C)=C/C=C/[C@H](OC)[C@@H]([C@@H](C)[C@@H](O)[C@H](C)[C@@]2(O)C[C@@H](O)[C@H](C)[C@@H](C(C)C)O2)OC1=O` [bafilomycin, reference compound]?
**A.** effect of inhibitor on cytosolic delivery of dTAT (HeLa cells [3]): inhibited the cytosolic delivery of dTAT; effect of bafilomycin on dTAT-induced DEAC-K9 redistribution (HeLa cells [4]): inhibited

**Q.** C(S—CH2CONH2)K(ε-NH-TMR)TAT [acTAT] was tested. Which “endosomal escape when internalized amount is above the dTAT threshold level” value (HeLa cells [5]) did it give?
**A.** does not achieve endosomal escape

**Q.** And the “cellular localization of peptide fluorescence” value (HeLa cells [1]; 1-20 μM)?
**A.** punctate distribution

**Q.** For `N=C(N)NC(=O)c1nc(Cl)c(N)nc1N` [amiloride], which “effect of inhibitor on cytosolic delivery of dTAT” value (HeLa cells [3]) is on record?
**A.** inhibited the cytosolic delivery of dTAT
